# From publication PMC11724075, “Small-molecule-induced ERBB4 activation to treat heart failure” (Nature Communications, 2025)
# Values joined by “and” are separate entries in the source; they are usually repeats but may differ in a detail not shown here. Equal entries are not always repeated.
# Experiments:
# [1] = tested on: iAMs; assay: H2O2-induced cell death assay in iAMs (Toxilight), also with LY294002
# Procedure: Subsequently, H2O2 (100 µM; Merck, H1009) was added and the cells were incubated for 4 h at 37 °C. All wells contained DMSO at a final concentration of 0.9%. […] After incubation at RT for 5 min, luminescence was measured using the Luminoskan Ascent.
# [2] = target: T1, ERBB4/ERBB4 (Homo sapiens, UniProt Q15303); assay: PathHunter U2OS ERBB4/ERBB4 dimerization assay, 96-well dose-response; assay type: cell-based; settings: for ERBB4/ERBB4 dimerization signal: relative to signal with 0.1 µM NRG1, single biological replicates; for EC50: Fig. 1 panels b, f-l
# T1 construct: host or cells: U2OS (osteosarcoma cells), PathHunter engineered line
# T1 sequence (Q15303 26-1308): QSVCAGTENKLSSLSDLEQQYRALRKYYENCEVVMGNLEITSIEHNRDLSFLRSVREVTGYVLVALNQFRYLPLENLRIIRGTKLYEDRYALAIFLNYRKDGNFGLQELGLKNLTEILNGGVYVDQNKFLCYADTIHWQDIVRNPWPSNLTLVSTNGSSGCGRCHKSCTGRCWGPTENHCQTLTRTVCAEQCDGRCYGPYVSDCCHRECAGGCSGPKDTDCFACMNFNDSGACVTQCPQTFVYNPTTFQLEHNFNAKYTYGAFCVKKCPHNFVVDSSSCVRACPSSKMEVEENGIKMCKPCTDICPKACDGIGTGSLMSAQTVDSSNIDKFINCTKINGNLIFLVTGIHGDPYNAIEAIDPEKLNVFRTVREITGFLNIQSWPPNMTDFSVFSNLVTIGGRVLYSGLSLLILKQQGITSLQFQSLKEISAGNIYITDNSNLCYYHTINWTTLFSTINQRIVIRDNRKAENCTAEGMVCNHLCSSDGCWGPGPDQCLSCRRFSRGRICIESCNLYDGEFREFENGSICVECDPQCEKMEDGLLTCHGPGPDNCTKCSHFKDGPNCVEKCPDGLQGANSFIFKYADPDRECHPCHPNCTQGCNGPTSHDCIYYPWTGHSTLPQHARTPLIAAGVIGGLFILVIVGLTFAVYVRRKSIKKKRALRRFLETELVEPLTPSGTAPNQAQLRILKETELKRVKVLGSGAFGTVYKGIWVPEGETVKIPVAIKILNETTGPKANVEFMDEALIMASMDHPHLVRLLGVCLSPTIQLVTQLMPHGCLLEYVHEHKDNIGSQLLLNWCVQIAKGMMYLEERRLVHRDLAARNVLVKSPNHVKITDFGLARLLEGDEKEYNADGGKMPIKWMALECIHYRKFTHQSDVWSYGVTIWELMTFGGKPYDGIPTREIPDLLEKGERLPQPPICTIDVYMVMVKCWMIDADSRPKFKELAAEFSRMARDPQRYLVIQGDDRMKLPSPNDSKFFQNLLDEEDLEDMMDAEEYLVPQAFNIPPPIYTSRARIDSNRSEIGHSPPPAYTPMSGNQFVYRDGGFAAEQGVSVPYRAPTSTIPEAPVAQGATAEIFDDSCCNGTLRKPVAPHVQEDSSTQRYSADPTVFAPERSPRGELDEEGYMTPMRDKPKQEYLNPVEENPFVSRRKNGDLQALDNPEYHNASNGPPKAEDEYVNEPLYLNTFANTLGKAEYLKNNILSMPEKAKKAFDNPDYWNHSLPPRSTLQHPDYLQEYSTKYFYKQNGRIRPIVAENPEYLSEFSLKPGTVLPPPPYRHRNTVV
# T1 sequence (Q15303 26-1308): as above
# Procedure: PathHunter U2OS ERBB4/ERBB4 (osteosarcoma cells; Eurofins, 93-0961C3), U2OS ERBB2/ERBB4 (osteosarcoma cells; Eurofins, 493-0960C3), ERBB2/ERBB3 (osteosarcoma cells; Eurofins, 93-1042C3) and ERBB1/ERBB1 (osteosarcoma cells; Eurofins, 93-0989C3) dimerization cell lines were cultured according to the manufacturer’s instructions. Briefly, cells were cultured in Cell Culture Reagent 103 (Eurofins, 92-3103 G) supplemented with 250 µg/mL Hygromycin B (Eurofins, 92-0029) and 500 µg/mL G418 (Eurofins, 92-0030), and were maintained at 37 °C in humidified atmosphere of 5% CO2. HCFs (Innoprot, P10454) were cultured in fibroblast medium (Innoprot, P60108) supplemented with 10% (v/v) fetal bovine serum (FBS, Innoprot), 10% (v/v) fibroblast growth supplement (Innoprot), and 1% (v/v) penicillin/streptomycin solution (Innoprot). iAMs[33] (kindly provided by LUMC) were cultured in Advanced DMEM F-12 (Thermo Fisher Scientific, 12634028) supplemented with 2% (v/v) heat-inactivated FBS (Thermo Fisher Scientific, 10270106), 1% (v/v) penicillin/streptomycin (10,000 units/mL and 10 mg/mL respectively, Thermo Fisher Scientific, 15140122), 1× GlutaMAX (Thermo Fisher Scientific, 35050061), and 100 ng/mL doxycycline (Tocris, 4090) for proliferation. To induce differentiation, iAMs were transferred to medium without doxycycline.
# U2OS ERBB4/ERBB4 dimerization cells were seeded at a density of 5 × 10^4 cells/well in 100 µL Cell Plating 0 Reagent, in white 96-well plates (PerkinElmer, 6005680) and incubated for 24 h at 37 °C, 5% CO2. […] Next, 110 µL PathHunter Flash Detection Reagent was added to each well and incubated at RT for 1 h after which the luminescence signal was measured using the Luminoskan Ascent (Thermo Fisher Scientific). […] The same experimental set-up was used for the U2OS ERBB2/ERBB4, U2OS ERBB2/ERBB3 and U2OS ERBB1/ERBB1 dimerization cell lines.
# Category Parameter Description
# Assay Type of assay PathHunter Dimerization assays provide a robust, highly sensitive and easy-to-use cell-based functional assay to study various protein activities in a cell. The assay s use
# Enzyme Fragment Complementation technology, where the b-galactosidase (b-gal) enzyme is split into two fragments, ProLink and Enzyme Acceptor. Independently these fragments have no b-gal activity. However, when forced to complement through protein-protein interactions, they form an active b-gal enzyme. The PathHunter Dimerization assay detects ligand induced dimerization of two subunits of a receptor-dimer pair. The cells have been engineered to co-express one receptor subunit (ERBB4) fused to Enzyme
# Donor, and a second dimer partner (ERBB4) fused to Enzyme Acceptor. Binding of an agonist to one receptor subunit induces it to interact with its dimer partner, forcing complementation of the two enzyme […]
# functional enzyme that hydrolyzes a substrate to generate a chemiluminescent signal.
# Target ErbB4 receptor (RTK receptor)
# Primary measurement Detection of chemiluminescent signal, induced by small-molecule ErbB4 agonists
# Key reagents PathHunter Dimerization ErbB4/ErbB4 Cell
# Line (93-0961C3) - PathHunter Flash
# Detection Kit (03 -0247) - AssayComplete Cell
# AssayComplete Cell Detachment Reagent
# (92-0009) - AssayComplete Thawing Reagent
# T3 (92-4103TR) - AssayComplete Freezing
# Assay protocol https://www.discoverx.com/catalog/pathhun
smiles,measurement,setting,value
"OO [Compound H2O2, hydrogen peroxide, reference compound]",total cell death of iAMs,[1]; 100 µM H2O2,62%
same,"total cell death of iAMs, validation H2O2","[1]; H2O2 vs Vehicle, single replicates",48.19 and 54.13 and 68.52 and 60.96 and 64.53 and 71.34 and 65.79 and 69.72 and 69.16 and 66.75 and 64.62 and 50.66 and 53.52 and 64.15
Cc1sc2nc(SC(C)C(=O)Nc3sccc3C(N)=O)n(CC(C)C)c(=O)c2c1C (centres unmarked) [EF-6],induction of ERBB4 dimerization (in words),[2],induced ERBB4 dimerization in a concentration-dependent manner
same,ERBB4/ERBB4 dimerization signal,[2]; 3.125e-8 M,0
same,ERBB4/ERBB4 dimerization signal,[2]; 6.25e-8 M,-10.54 and 0.126 and -1.899
same,ERBB4/ERBB4 dimerization signal,[2]; 1.25e-7 M,-0.74 and -11.14 and 0.573 and -2.081
same,ERBB4/ERBB4 dimerization signal,[2]; 2.5e-7 M,-11.05 and 1.316 and 0.08162
same,ERBB4/ERBB4 dimerization signal,[2]; 5e-7 M,-1.14 and -8.91 and 2.656 and 0.4928
same,ERBB4/ERBB4 dimerization signal,[2]; 1e-6 M,-7.05 and 2.748 and 1.042
same,ERBB4/ERBB4 dimerization signal,[2]; 2e-6 M,-1.29 and -3.55 and 2.61 and 5.158
same,ERBB4/ERBB4 dimerization signal,[2]; 4e-6 M,3.35 and 5.191 and 6.31
same,ERBB4/ERBB4 dimerization signal,[2]; 8e-6 M,7.22 and 8.65 and 7.634 and 6.661
same,ERBB4/ERBB4 dimerization signal,[2]; 1.6e-5 M,15.88 and 10.304 and 5.283
same,ERBB4/ERBB4 dimerization signal,[2]; 3.2e-5 M,10.39 and 15.72 and 13.149 and 5.2549
same,EC50,[2],7.4 µM
CC(Sc1nc2ccccc2c(=O)n1C1CCCC1)C(=O)N(C)c1ccccc1 (centres unmarked) [EF-3],ERBB4/ERBB4 dimerization signal,[2]; 3.125e-8 M,0
same,ERBB4/ERBB4 dimerization signal,[2]; 6.25e-8 M,-1.21 and 2.4 and -0.0725
same,ERBB4/ERBB4 dimerization signal,[2]; 1.25e-7 M,-1.21 and 2.26 and 0.6885
same,ERBB4/ERBB4 dimerization signal,[2]; 2.5e-7 M,-1.52 and 3.09 and -0.0015
same,ERBB4/ERBB4 dimerization signal,[2]; 5e-7 M,-1.8 and 4 and -1.488
same,ERBB4/ERBB4 dimerization signal,[2]; 1e-6 M,-0.91 and 4.12 and -1.3115
same,ERBB4/ERBB4 dimerization signal,[2]; 2e-6 M,-2.34 and 4.47 and -0.737
same,ERBB4/ERBB4 dimerization signal,[2]; 4e-6 M,-2.82 and 3.65 and 0.377
same,ERBB4/ERBB4 dimerization signal,[2]; 8e-6 M,-2.1 and 3.98 and 3.507
same,ERBB4/ERBB4 dimerization signal,[2]; 1.6e-5 M,-0.15 and 7.88 and 11.189
same,ERBB4/ERBB4 dimerization signal,[2]; 3.2e-5 M,10.32 and 12.81 and 17.0765
same,EC50,[2],15.9 µM
O=C1NCCCCC1Sc1nc2sc3c(c2c(=O)n1C1CCCC1)CCCC3 (centres unmarked) [EF-5],induction of ERBB4 dimerization (in words),[2],induced ERBB4 dimerization in a concentration-dependent manner
same,ERBB4/ERBB4 dimerization signal,[2]; 3.125e-8 M,0
same,ERBB4/ERBB4 dimerization signal,[2]; 6.25e-8 M,0.55 and -5.82 and -1.2625 and -2.273
same,ERBB4/ERBB4 dimerization signal,[2]; 1.25e-7 M,-0.81 and -3.79 and -1.2155 and 0.9982
same,ERBB4/ERBB4 dimerization signal,[2]; 2.5e-7 M,2.18 and -1.68 and -1.408 and 0.7189
same,ERBB4/ERBB4 dimerization signal,[2]; 5e-7 M,0.6 and -0.22 and -2.045 and 0.5619
same,ERBB4/ERBB4 dimerization signal,[2]; 1e-6 M,1.62 and -1.86 and -1.923 and 1.909
same,ERBB4/ERBB4 dimerization signal,[2]; 2e-6 M,0.85 and -0.68 and -0.804 and 3.362
same,ERBB4/ERBB4 dimerization signal,[2]; 4e-6 M,1.61 and 5.16 and 4.378 and 4.178
same,ERBB4/ERBB4 dimerization signal,[2]; 8e-6 M,4.54 and 3.781 and 4.611
same,ERBB4/ERBB4 dimerization signal,[2]; 1.6e-5 M,16.34 and 17.63 and 4.256 and 4.3885
same,ERBB4/ERBB4 dimerization signal,[2]; 3.2e-5 M,15.88 and 18.62 and 11.2465 and 8.67
same,EC50,[2],6.8 µM
Cc1sc2nc(SCC(=O)NC(C)(C#N)C(C)C)n(C3CCCC3)c(=O)c2c1C (centres unmarked) [EF-8],induction of ERBB4 dimerization (in words),[2],induced ERBB4 dimerization in a concentration-dependent manner
same,ERBB4/ERBB4 dimerization signal,[2]; 3.125e-8 M,0
same,ERBB4/ERBB4 dimerization signal,[2]; 6.25e-8 M,-2.398 and 2.948 and -2.16 and -2.631
same,ERBB4/ERBB4 dimerization signal,[2]; 1.25e-7 M,-3.058 and 0.945 and -1.747 and 1.488
same,ERBB4/ERBB4 dimerization signal,[2]; 2.5e-7 M,-2.005 and -2.555 and -0.053 and 1.532
same,ERBB4/ERBB4 dimerization signal,[2]; 5e-7 M,-2.09 and -2.305 and 2.13 and 0.7408
same,ERBB4/ERBB4 dimerization signal,[2]; 1e-6 M,-1.274 and -2.984 and 1.804 and 0.1664
same,ERBB4/ERBB4 dimerization signal,[2]; 2e-6 M,-1.378 and -1.267 and 1.368 and 2.734
same,ERBB4/ERBB4 dimerization signal,[2]; 4e-6 M,-1.56 and -0.487 and 3.629 and 7.521
same,ERBB4/ERBB4 dimerization signal,[2]; 8e-6 M,-0.129 and 2.382 and 5.053 and 7.016
same,ERBB4/ERBB4 dimerization signal,[2]; 1.6e-5 M,5.735 and 10.567 and 10.209 and 8.435
same,ERBB4/ERBB4 dimerization signal,[2]; 3.2e-5 M,13.012 and 24.912 and 17.432
same,EC50,[2],14 µM
